The structures appear in SMILES notation.

One test has as its system Normal human fibroblasts. The experiment in a line: Cytostatic action, BrdU uptake (Cell Proliferation ELISA). Type of test: cell-based. Conditions: dermal fibroblast proliferation, 2 days. As to the method: Normal human fibroblasts (Sanko Junyaku Co., Ltd.) were seeded at 2000 cells/well and cultured overnight. Next day, the medium (FGM-2 (Sanko Junyaku Co., Ltd.)) was exchanged (150 μL), and 10 μL of Ripasudil was then added so that the final concentration was 0.1 μM, 1 μM and 10 μM. After culturing for 2 days, 10 μL of BrdU (58.8-fold diluted solution: an undiluted solution is a 1000-fold solution) was added, and the cells were cultured for 2 hours. OD540-620 was measured using a plate reader after fixation and antibody addition, washing and coloring, and reaction termination in accordance with the protocol of Cell Proliferation ELISA BrdU kit (Roche), and an action on proliferation was evaluated. A value in a sample in which Ripasudil is not added is considered as 100%, and the uptake rate of BrdU under each condition is shown in Table 2.
For orientation: In an ELISA, binding on a coated surface is turned into a signal by an enzyme label.

For the next test, the system named is HLEpiC. The experiment in a line: Determination of G-actin/F-actin ratio using G-Actin/F-Actin In Vivo Assay Kit. As to conditions: about an hour, control 1.16. It is filed as cell-based, human. As to the method: HLEpiC was diluted with a medium (Epithelial Cell Medium), and dispensed to a Poly-L-lysine coated T-75 flask at about 5000 cells/cm^2, and cultured in a carbon dioxide incubator (37° C., 5% CO2) until about 50% confluent. A test substance, a positive control or the medium (control) at each concentration given below was added to each flask at 20 mL.
Test substance: Ripasudil with a concentration of […], 100 μM or 1 mM,
Positive control: CD with a concentration of 2 μM, and
These were treated in a carbon dioxide incubator (37° C., 5% CO2) for about an hour.
To 20 mL of Lysis and F-actin stabilization buffer was added 200 μL of 100 mM ATP stock solution and 200 μL of 100× Protease inhibitor cocktail stock to produce LAS2 buffer, and this was incubated in a carbon dioxide incubator (37° C.) for about 30 minutes. Warmed LAS2 buffer was added at 2.5 mL to each flask in which the medium was removed with vacuum suction.
Next, adherent HLEpiC was completely scraped with a cell scraper and transferred with the LAS2 buffer to a conical tube, and HLEpiC was crushed with a micropipette (hereinafter, referred to as cell solution). This cell solution was incubated in a carbon dioxide incubator (37° C.) for about 10 minutes and then centrifuged for 10 minutes (2000 rpm, room temperature). The supernatant was dispensed into an ultracentrifugal tube at 1.8 mL and centrifuged for an hour with an ultracentrifuge (100,000× g, 37° C.). At this time, F-actin is precipitated and G-actin remains in the supernatant.
The supernatant was transferred to a conical tube while being careful not to suck F-actin precipitates.
To precipitates of each sample was added 1.8 mL of F-actin depolymerizing buffer, and this was incubated under ice-cold conditions for an hour to depolymerize actin.
From each supernatant sample and precipitate sample, 100 μL each was put in a 1.5 mL Eppendorf tube, and 25 μL of 5×SDS sample buffer was added and stirred.
Each sample was boiled in a boiling water bath for 5 minutes.
Each sample was subjected to SDS-polyacrylamide gel electrophoresis, followed by Western blotting.
Next, after treatment using a Western blotting detection reagent (ECL Select Western Blotting Detection Reagent, GE Healthcare Japan), proteins were detected using a Lumino image analyzer. The quantities of G-actin and F-actin were determined using an analysis software (ImageQuant TL, GE Healthcare Japan) and the G-actin/F-actin ratio was calculated.
The variation in the quantity of F-actin required to form actin stress fibers was evaluated by comparison with the G-actin/F-actin ratio of untreated (Control) cells.

`C[C@H]1CNCCCN1S(=O)(=O)c1cccc2cncc(F)c12` [Ripasudil, 4-fluoro-5-{[(2S)-2-methyl-1,4-diazepan-1-yl]sulfonyl}isoquinoline]: the “Uptake rate of BrdU (% of control)” value in the test with Normal human fibroblasts (Ripasudil 0.1 μM) is reported as 80.0 % of control; in the test with Normal human fibroblasts (Ripasudil 1.0 μM), 59.3 % of control; in the test on Normal human fibroblasts (Ripasudil 10.0 μM), 10.9 % of control. Besides, the G-actin/F-actin ratio with HLEpiC (10 μM) is reported as 1.91; in the test on HLEpiC (100 μM) it was 4.55; with HLEpiC (1 mM) it was 24.87.

The values are drawn from patent publication US9844556B2, “Preventive/therapeutic method and preventive/therapeutic agent for complications after cataract surgery” (KOWA COMPANY, LTD., priority 2015, dated 2017).
